Test results as given in ChEMBL document CHEMBL5584346, “Discovery of Covalent MLKL PROTAC Degraders via Optimization of a Theophylline Derivative Ligand for Treating Necroptosis” (J Med Chem, 2024).
The source made the active and inactive calls. The calls are words filed in the database; no cut-off is given here.

Legend:
[1] = molecular target: Protein cereblon/Mixed lineage kinase domain-like protein (Homo sapiens, UniProt Q8NB16+Q96SW2); experiment: PROTAC activity at CRBN/MLKL in TSZ-treated human HT-29 cells assessed as protein degradation incubated for 24 hrs by Western blot analysis; type: cell-based; details: dose 10-300 nM
Sequence of Protein cereblon/Mixed lineage kinase domain-like protein (Q96SW2 whole entry, looked up, one chain of several, the tested form may be a part): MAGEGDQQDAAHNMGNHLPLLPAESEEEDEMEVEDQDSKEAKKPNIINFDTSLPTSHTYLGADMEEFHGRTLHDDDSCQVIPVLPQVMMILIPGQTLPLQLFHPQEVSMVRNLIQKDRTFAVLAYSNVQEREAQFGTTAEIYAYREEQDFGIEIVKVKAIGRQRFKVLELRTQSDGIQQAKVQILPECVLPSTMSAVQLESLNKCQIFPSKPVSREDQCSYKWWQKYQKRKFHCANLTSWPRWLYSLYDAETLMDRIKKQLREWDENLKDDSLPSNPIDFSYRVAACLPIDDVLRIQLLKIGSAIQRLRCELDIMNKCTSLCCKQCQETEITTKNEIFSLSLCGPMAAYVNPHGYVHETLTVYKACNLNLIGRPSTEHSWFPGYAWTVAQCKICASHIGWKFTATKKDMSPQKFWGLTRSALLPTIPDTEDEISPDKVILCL

[2] = molecular target: T1, Mixed lineage kinase domain-like protein (Homo sapiens) (UniProt Q8NB16); experiment: Inhibition of MLKL trimer formation in human HT-29 cells formation at 30 nM incubated for 4 hrs followed by TSZ treatment measured upto 24 hrs by Western blot analysis; type: cell-based; details: time 28.0 hrs
T1 sequence (whole entry): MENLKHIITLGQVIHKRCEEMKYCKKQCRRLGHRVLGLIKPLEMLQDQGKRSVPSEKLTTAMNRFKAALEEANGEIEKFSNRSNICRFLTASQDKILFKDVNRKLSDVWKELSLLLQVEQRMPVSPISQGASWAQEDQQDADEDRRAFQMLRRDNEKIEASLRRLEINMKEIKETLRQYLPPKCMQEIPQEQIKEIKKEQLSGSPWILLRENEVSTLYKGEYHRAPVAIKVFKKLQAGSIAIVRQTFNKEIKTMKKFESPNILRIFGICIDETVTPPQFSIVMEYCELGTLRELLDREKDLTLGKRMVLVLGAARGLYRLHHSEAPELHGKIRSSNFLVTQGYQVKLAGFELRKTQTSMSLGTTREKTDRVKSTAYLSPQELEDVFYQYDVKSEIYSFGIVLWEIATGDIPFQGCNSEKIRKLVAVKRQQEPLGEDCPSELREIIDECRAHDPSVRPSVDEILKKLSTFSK

[3] = Toxicity in BALB/c nude mouse xenografted with human HT-29 cells assessed as effect on spleen at 40 mg/kg, iv qd for 2 weeks by H and E staining based analysis; type: organism-based; details: in vivo, 336 h

Activity [1]: Dose-Dependent Effect
inhibition [2]: Active
Compound: Cn1c(=O)c2c(nc(S(C)(=O)=O)n2C)n(CC#Cc2cccc(NC(=O)CN3CCN(c4ccc5c(c4)C(=O)N(C4CCC(=O)NC4=O)C5=O)CC3)c2)c1=O (stereo not drawn)
Activity [3]: Non-Toxic
